We go through 14 compounds from patent publication US8557998B2, “Benzylpiperizine compound” (Dainippon Sumitomo Pharma Co., Ltd, priority 2008, dated 2013).

Series [1] addresses T1, human serotonin transporter (h-SERT) (Homo sapiens, UniProt P31645).
T1 construct: expressed in transfected cells; host or cells: CHO cells (h-SERT/CHO), Geneticin-selected
The series is described as follows: Screening test using [3H]citalopram binding for evaluating human serotonin reuptake inhibitory effect. As to conditions: h-SERT/CHO membrane preparation, [3H]citalopram approximately 2 nM, room temperature 60 minutes; read-out: Test Example 1: h-SERT binding inhibition constant (Ki). The source says: CHO cells containing a human serotonin transporter (h-SERT) expressed therein (h-SERT/CHO) were used in the experiment.
1-2 Receptor Binding Experiment
A smaller value of the h-SERT binding inhibition constant Ki means a higher human serotonin reuptake inhibitory effect.

The target of series [2] is T2, CYP2D6 (Homo sapiens, UniProt P10635).
T2 construct: Pooled of Human Liver Microsomes was purchased from Xenotech, LLC; tissue Xenotech, LLC; host or cells: pooled human liver microsomes
The series is described as follows: CYP2D6 inhibition screening test. As to conditions: pooled human liver microsomes, substrate bufuralol, 37° C. 10 min, 1'-hydroxybufuralol by LC-MSMS; read-out: Test Example 3: CYP2D6 Inhibition IC50. In kind it is in vitro ADME. Here is the method: CYP2D6 Inhibition Screening Test
Bufuralol was purchased from Sigma-Aldrich Corp., and Pooled of Human Liver Microsomes was purchased from Xenotech, LLC.
150 μL of Pooled Human Liver Microsomes (20 mg/ml), 12 mL of a 0.5 M potassium phosphate buffer, 1.2 mL of a 165 mM magnesium chloride solution, and 34.65 mL of distilled water were mixed.
Bufuralol was dissolved at a concentration of 2.0 mM in DMSO and then diluted 200-fold with distilled water.
3-3 Experimental Procedures
1. A 10 mM DMSO solution of a test drug was serially diluted 5-fold with DMSO for 4 serial dilutions to prepare 10, 2, 0.4, and 0.08 mM DMSO solutions.
2. Each test drug solution of the step 1. and DMSO were separately diluted 96-fold with a human liver microsome solution, and each dilution was dispensed and 80 μL of each dilution to microplates.
3. 10 μL of a substrate solution and 10 μL of a β-NADPH solution were added to the well of the step 2., followed by incubation at 37° C. for 10 min.
4. The reaction was terminated by the addition of 300 μL of methanol.
5. The reaction mixture was filtered, and LC-MSMS analysis was conducted.
3-4 Quantification and Calculation
The amount of 1′-hydroxybufuralol produced was quantified by LC-MSMS, and this amount was used as a metabolic activity of CYP2D6 for each well. The remaining activity of each sample was determined by comparison with the activity obtained from DMSO as a test drug. An IC50 value of CYP2D6 inhibition was determined from the test drug concentration and remaining activity. The IC50 value was calculated by linear interpolation between two points that span the remaining activity 50%. A larger value of IC50 of CYP2D6 inhibition means weaker CYP2D6 inhibition.
(Liver microsomes are vesicles of endoplasmic reticulum, rich in cytochrome P450 enzymes.)

Series [3] deals with T2, CYP2D6. The series is described as follows: Screening test of the rate of CYP2D6 contribution in human liver microsomal metabolism. In kind it is in vitro ADME. Also noted: key to Rate of CYP2D6 Contribution indeterminable due to high stability for human microsomal metabolism: —*^): The rate of CYP2D6 contribution was indeterminable in the present test due to high stability for human microsomal metabolism. As to conditions: 1 mg/mL human liver microsomes, 1 μM test substance, 37° C.; for Test Example 4: Rate of CYP2D6 Contribution: with/without quinidine 4 μM. Here is the method:
Screening Test of the Rate of CYP2D6 Contribution in Human Liver Microsomal Metabolism
0.2 mL of a 50 mM potassium phosphate buffer solution (pH 7.4) containing NADPH (final concentration: 3 mM, manufactured by Oriental Yeast Co., Ltd.), 1 mg/mL human liver microsomes (manufactured by XENOTECH, LLC), and a 1 μM test substance was heated on a water bath at 37° C. for metabolic reaction. After the reaction for 15 minutes or 30 minutes, methanol was added in a volume 3 times that of the reaction solution, and the mixture was stirred to terminate the reaction. This reaction solution was centrifuged for protein precipitation. Then, the supernatant was collected and subjected to LC-MS/MS analysis. The results were analyzed as follows:
The test substance was quantified, and time-dependent change in the amount of the substance remaining was logarithmically plotted. A metabolic rate was calculated from the slope.
The ratio of the metabolic rate obtained by the addition of quinidine (final concentration: 4 μM) to the reaction solution to the metabolic rate obtained without the addition was used as the rate of contribution of enzymes other than CYP2D6, and the rate of contribution obtained by subtracting this rate of contribution of other enzymes from the total was used as the rate of CYP2D6 contribution. Specifically, it was calculated according to the equation: Rate of contribution(%)={1−(metabolic rate [with quinidine]/metabolic rate[without quinidine])}×100. A smaller value of the rate of CYP2D6 contribution means smaller CYP2D6 contribution.

Series [4] addresses T1, human serotonin transporter (h-SERT). The series is described as follows: Serotonin transporter function inhibition test using [3H]5-HT. In kind it is cell-based. As to conditions: h-SERT/CHO cells, [3H]5-HT uptake approximately 10 nM, 37° C. 10 minutes; read-out: Test Example 5: h-SERT Function Inhibition Constant (Ki). As for the experimental part: 1-1 Cells Used and Preparation of Cell Suspension
CHO cells containing a human serotonin transporter (h-SERT) expressed therein (h-SERT/CHO) were used in the experiment. […] The collected cells were suspended in a buffer solution containing 0.1 mM CaCl2 and 1 mM MgCl2 in PBS (hereinafter, referred to as PBSCM) and stored in ice until use.
Specifically, 149 μl of the cell suspension (10×10^4 cells/well) and 1 μl of a solution of a test drug dissolved in dimethyl sulfoxide were preincubated at 37° C. for 10 minutes.

Series [5] deals with T3, human serotonin 1A receptor (h-5-HT1A) (Homo sapiens, UniProt P08908).
T3 sequence (P08908 1-422): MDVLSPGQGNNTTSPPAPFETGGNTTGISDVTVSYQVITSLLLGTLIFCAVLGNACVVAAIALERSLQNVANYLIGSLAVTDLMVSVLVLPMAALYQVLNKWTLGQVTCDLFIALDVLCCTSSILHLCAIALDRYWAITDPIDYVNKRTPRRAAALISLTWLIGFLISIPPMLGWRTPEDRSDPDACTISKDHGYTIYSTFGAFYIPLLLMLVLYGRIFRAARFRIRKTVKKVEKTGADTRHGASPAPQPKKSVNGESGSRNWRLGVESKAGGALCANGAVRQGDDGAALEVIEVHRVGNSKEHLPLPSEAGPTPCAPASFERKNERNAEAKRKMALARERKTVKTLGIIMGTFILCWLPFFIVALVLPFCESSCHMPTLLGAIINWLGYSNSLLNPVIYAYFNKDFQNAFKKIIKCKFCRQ
Experimental: The cells were cultured in F12 containing 10% FCS, 500 μg/ml Geneticin, and 100 U/ml penicillin-100 μg/ml streptomycin (all manufactured by Sigma-Aldrich Corp.) in a 5% CO2 incubator. […] Specifically, the cells were dissociated/collected using 50 mM Tris-HCl (pH=7.4). The resulting cells were homogenized using a Teflon (registered trademark) homogenizer and then centrifuged (48,000×g, 20 min, 4° C.). The pellet was resuspended in an appropriate amount of 50 mM Tris-HCl (pH=7.4) and stored at −80° C. until use. The amount of the protein in the membrane preparation was quantified using Dye Reagent Concentrate (manufactured by Bio-Rad Laboratories, Inc.) with bovine serum albumin (manufactured by Sigma-Aldrich Corp.) as a standard.
The reaction solution was reacted at room temperature for 30 minutes and then rapidly filtered by suction at a low pressure through glass fiber filter paper. The glass fiber filter paper was washed twice with 250 μl of 50 mM Tris-HCl (pH=7.4) and then added to a counting vial containing 4 ml of ACS-II (manufactured by Amersham Biosciences). Receptor binding radioactivity remaining on the filter paper was measured using a liquid scintillation counter.

T2 sequence (P10635 whole entry): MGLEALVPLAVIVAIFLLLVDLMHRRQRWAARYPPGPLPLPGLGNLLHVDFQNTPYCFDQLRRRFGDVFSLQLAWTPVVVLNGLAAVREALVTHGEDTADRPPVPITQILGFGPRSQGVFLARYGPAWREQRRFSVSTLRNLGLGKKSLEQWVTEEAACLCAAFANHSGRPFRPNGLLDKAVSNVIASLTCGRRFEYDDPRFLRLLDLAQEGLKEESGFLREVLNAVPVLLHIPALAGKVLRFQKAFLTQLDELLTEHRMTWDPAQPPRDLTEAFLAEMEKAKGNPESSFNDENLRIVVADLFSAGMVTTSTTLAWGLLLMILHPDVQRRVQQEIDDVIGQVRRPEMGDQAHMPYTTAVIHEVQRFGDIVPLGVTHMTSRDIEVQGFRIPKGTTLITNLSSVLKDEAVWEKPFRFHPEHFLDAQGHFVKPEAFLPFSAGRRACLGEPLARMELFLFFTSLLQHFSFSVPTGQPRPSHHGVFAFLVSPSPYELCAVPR
T1 sequence (P31645 whole entry): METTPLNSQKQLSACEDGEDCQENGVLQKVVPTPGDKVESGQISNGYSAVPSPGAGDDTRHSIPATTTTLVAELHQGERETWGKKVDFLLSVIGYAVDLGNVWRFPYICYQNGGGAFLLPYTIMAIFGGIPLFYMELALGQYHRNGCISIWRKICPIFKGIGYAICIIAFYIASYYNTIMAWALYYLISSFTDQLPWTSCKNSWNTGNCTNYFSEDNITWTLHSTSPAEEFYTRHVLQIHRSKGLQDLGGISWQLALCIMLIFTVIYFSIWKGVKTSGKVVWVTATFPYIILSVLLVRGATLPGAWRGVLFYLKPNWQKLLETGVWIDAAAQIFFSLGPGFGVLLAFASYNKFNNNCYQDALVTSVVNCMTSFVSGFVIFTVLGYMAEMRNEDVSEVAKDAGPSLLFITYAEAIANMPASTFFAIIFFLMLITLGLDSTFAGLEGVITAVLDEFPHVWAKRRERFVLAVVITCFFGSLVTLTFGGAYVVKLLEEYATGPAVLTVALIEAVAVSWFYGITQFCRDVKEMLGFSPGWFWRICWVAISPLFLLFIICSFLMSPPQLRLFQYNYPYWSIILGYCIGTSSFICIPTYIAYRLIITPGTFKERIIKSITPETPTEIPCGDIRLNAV

In general, Ki refers to the equilibrium dissociation constant of an inhibitor or competing ligand from its target. As a reminder, the IC50 is the concentration that gives 50% inhibition. In the case of `COCCOc1cc(CC2CCN(CCc3ccc4c(c3)C(=O)CCC4)CC2)ccc1Br` [Example 2, 7-(2-{4-[4-Bromo-3-(2-methoxyethoxy)benzyl]piperidin-1-yl}ethyl)-3,4-dihydronaphthalen-1(2H)-one], the inhibition constant (Ki) is 0.7 nM in series [1] and 1.6 nM in series [4]. The IC50 on CYP2D6 [2] was determined as 12800 nM. For the same compound, the “Test Example 4: Rate of CYP2D6 Contribution” value (from here on “Test Example 4: Rate”) on CYP2D6 [3] is 12%.
On to `COCCOc1cc(CC2CCN(CCc3ccc4c(c3)C(=O)CCO4)CC2)ccc1Br.Cl` [Example 4, 6-(2-{4-[4-Bromo-3-(2-methoxyethoxy)benzyl]piperidin-1-yl}ethyl)-2,3-dihydro-4H-chromen-4-one hydrochloride], for which, at CYP2D6 [2], the IC50 amounted to 22900 nM. Also, the “Test Example 4: Rate” value on CYP2D6 [3] is on record as 0%.
Consider `COCCOc1cc(CC2CCN(CCc3ccc4c(c3)C(=O)CCCO4)CC2)ccc1Br` [Example 6, 7-(2-{4-[4-Bromo-3-(2-methoxyethoxy)benzyl]piperidin-1-yl}ethyl)-3,4-dihydro-1-benzoxepin-5(2H)-one], for which the figures for the Ki in series [1] and in series [4] were 1.2 nM and 1.6 nM, respectively. In addition, on CYP2D6 [2], the IC50 worked out at 24700 nM. On CYP2D6 [3], the “Test Example 4: Rate” value is given as 4.2%.
Consider `COCCOc1cc(CC2CCN(CCc3ccc4c(c3)C(=O)CCO4)CC2)ccc1Cl` [Example 7, 6-(2-{4-[4-Chloro-3-(2-methoxyethoxy)benzyl]piperidin-1-yl}ethyl)-2,3-dihydro-4H-chromen-4-one], for which the Ki in series [1] was 2.7 nM; in series [4], 16 nM. Also, the IC50 at CYP2D6 [2] turned out to be 17500 nM. Besides, the “Test Example 4: Rate” value on CYP2D6 [3] worked out at 54%.
With `COCCOc1cc(CC2CCN(CCc3ccc4c(c3)C(=O)CC4)CC2)ccc1C` [Example 8, 6-(2-{4-[3-(2-Methoxyethoxy)-4-methylbenzyl]piperidin-1-yl}ethyl)-2,3-dihydro-1H-inden-1-one], the Ki turned out to be 2.8 nM in series [1] and 3.7 nM in series [5]. In addition, the IC50 at CYP2D6 [2] was 31000 nM. On CYP2D6 [3], the “Test Example 4: Rate” value stood at 9.6%.
Taken in the same sequence, the figures for `COCCOc1cc(CC2CCN(CCc3ccc4c(c3)C(=O)CCC4)CC2)ccc1C` [Example 9, 7-(2-{4-[3-(2-Methoxyethoxy)-4-methylbenzyl]piperidin-1-yl}ethyl)-3,4-dihydronaphthalen-1(2H)-one] were 3.1 nM, 13 nM, 33700 nM and 7.8%.
For `O=C1CCc2ccc(CCN3CCC(Cc4ccc(Br)c(OCCO)c4)CC3)cc21` [Example 11, 6-(2-{4-[4-Bromo-3-(2-hydroxyethoxy)benzyl]piperidin-1-yl}ethyl)-2,3-dihydro-1H-inden-1-one], the Ki in series [1] was found to be 6.4 nM; in series [5], 3.8 nM. In addition, the IC50 at CYP2D6 [2] is 24600 nM. Also, at CYP2D6 [3], the “Rate of CYP2D6 Contribution indeterminable due to high stability for human microsomal metabolism” value is on record as “—*^)”.
For `O=C1CCCc2ccc(CCN3CCC(Cc4ccc(Br)c(OCCO)c4)CC3)cc21` [Example 12, 7-(2-{4-[4-Bromo-3-(2-hydroxyethoxy)benzyl]piperidin-1-yl}ethyl)-3,4-dihydronaphthalen-1(2H)-one], the Ki in series [1] stood at 9.2 nM; in series [5] it was 23 nM. Also, at CYP2D6 [2], the IC50 amounted to 27900 nM. For the same compound, at CYP2D6 [3], the “Test Example 4: Rate” value stood at 17%.
For the compound `O=C1CCCOc2ccc(CCN3CCC(Cc4ccc(Br)c(OCCO)c4)CC3)cc21` [Example 14, 7-(2-{4-[4-Bromo-3-(2-hydroxyethoxy)benzyl]piperidin-1-yl}ethyl)-3,4-dihydro-1-benzoxepin-5(2H)-one], the Ki turned out to be 8.5 nM in series [1] and 55 nM in series [5]. In addition, the IC50 at CYP2D6 [2] was determined as 34800 nM. Also, the “Rate of CYP2D6 Contribution indeterminable due to high stability for human microsomal metabolism” value at CYP2D6 [3] is “—*^)”.
Turning to `COCCOc1cc(Br)cc(CC2CCN(CCc3ccc4c(c3)C(=O)CC4)CC2)c1` [Example 15, 6-(2-{4-[3-Bromo-5-(2-methoxyethoxy)benzyl]piperidin-1-yl}ethyl)-2,3-dihydro-1H-inden-1-one], the inhibition constant (Ki) in series [1] is 3.2 nM; in series [5], 35 nM. For the same compound, the IC50 on CYP2D6 [2] stood at 36100 nM. Also, at CYP2D6 [3], the “Test Example 4: Rate” value is 11%.
Taken in the same sequence, the figures for `COCCOc1cc(Br)cc(CC2CCN(CCc3ccc4c(c3)C(=O)CCC4)CC2)c1` [Example 16, 7-(2-{4-[3-Bromo-5-(2-methoxyethoxy)benzyl]piperidin-1-yl}ethyl)-3,4-dihydronaphthalen-1(2H)-one] were 2.9 nM, 27 nM, 26300 nM and 9.2%.
The like results for `COCCOc1cc(Br)cc(CC2CCN(CCc3ccc4c(c3)C(=O)CCCO4)CC2)c1` [Example 18, 7-(2-{4-[3-Bromo-5-(2-methoxyethoxy)benzyl]piperidin-1-yl}ethyl)-3,4-dihydro-1-benzoxepin-5(2H)-one] were, in that order, 6.2 nM, 295 nM, 27500 nM and 0%.
Taken in the same sequence, the figures for `COCCOc1cc(Cl)cc(CC2CCN(CCc3ccc4c(c3)C(=O)CC4)CC2)c1` [Example 19, 6-(2-{4-[3-Chloro-5-(2-methoxyethoxy)benzyl]piperidin-1-yl}ethyl)-2,3-dihydro-1H-inden-1-one] were 3 nM, 29 nM, 20400 nM and 16%.
Take `COCCOc1cc(Cl)cc(CC2CCN(CCc3ccc4c(c3)C(=O)CCO4)CC2)c1` [Example 20, 6-(2-{4-[3-Chloro-5-(2-methoxyethoxy)benzyl]piperidin-1-yl}ethyl)-2,3-dihydro-4H-chromen-4-one]: the Ki in series [1] came out at 2.4 nM; in series [5], 57 nM. In addition, at CYP2D6 [2], the IC50 turned out to be 23400 nM. For the same compound, the “Test Example 4: Rate” value on CYP2D6 [3] came to 24%.
